Data reported in paper PMC6352937, “Inhibition of protein phosphatase-1 and -2A by ellagitannins: structure-inhibitory potency relationships and influences on cellular systems” (Journal of Enzyme Inhibition and Medicinal Chemistry, 2019).

Assays:
HeLa lysate = assay: Phosphatase activity of HeLa cell lysate (32P-MLC20); format: biochemical, human; conditions: HeLa lysate in 300-fold dilution; 1 µM 32P-MLC20; mean ± SD
Experimental: (§1) Protein phosphatase activity of either skeletal muscle PP1c or PP2Ac (1.9–2.2 nM), or rPP1cα or rPP1cδ (2.71–3.72 nM), or FLAG-MYPT1-PP1c (∼9 nM) was assayed at 30 °C in absence or presence of polyphenol compounds (0.1–100 µM) in 20 mM Tris/HCl (pH 7.4), 0.1% 2-mercaptoethanol (30 µL). The purified phosphatase samples or HeLa lysates in 300-fold dilution (1.8–3.6 µg/ml) in the presence or absence of 2 µM I2 were preincubated with increasing concentration of the polyphenol compounds (0–100 µM) for 10 min then the reaction was started by the addition of 1 µM ^32P-MLC20 and incubated for 10 min. Polyphenol-treated HeLa cells were washed then lysed in 50 mM Tris/HCl (pH 8.0), 150 mM NaCl, 1% (V/V) Triton X-100, 0.15% (w/v) protease inhibitor cocktail. The phosphatase activity was assayed with 1 µM ^32P-MLC20 for 30 s in 3-fold final dilution (0.24–0.43 mg/ml). The reactions were terminated by the addition of 200 µL of 10% trichloroacetic acid and 200 µL of 6 mg/mL BSA solution. The samples were centrifuged for 3 min at 10,000 rpm and the supernatants (370 µL) were transferred into scintillation vials and the radioactivity of the released ^32Pi was determined in Tri-Carb 2800TR scintillation counter.
(§2) The ellagitannins (Figure 1) assayed on the activity of PP1c or PP2Ac in this study are similar to PGG in composition, but they differ structurally in two important aspects: (i) all of them include hexahydroxydiphenoyl unit linked in various positions, except for pedunculagin which includes two of these linkages; (ii) tellimagrandin I, pedunculagin, and praecoxin B have free glycosidic hydroxyls, while GHG has an unmodified hydroxyl at position 3 of the glucopyranose ring. […] Inhibition of the phosphatase activity by ellagitannins in HeLa cell lysate was also assessed. First, we determined the activity of PP1 and PP2A in the lysates using I2 to inhibit PP1, and low concentration of OA (2 nM) to suppress PP2A specifically, in order to determine the contribution of PP1 and PP2A to the phosphatase activity of lysates (Figure 2(E)).
(§3) Figure 2. The effect of ellagitannins on the activity of PP1 and PP2A. Ellagitannins (0.1–100 µM) were preincubated with the phosphatase samples for 10 min and the phosphatase activity was determined in triplicates with 1 µM ^32P-MLC20 substrate as described in “Materials and methods” section. […] The effect of tellimagrandin I on the activity of rPP1cα (^) and rPP1cδ (●) (C), or FLAG-MYPT1-PP1cδ (▼) (D), or on the phosphatase activity of HeLa lysate in the presence of I2 (□) (F). The effect of I2 and OA on the phosphatase activity of HeLa lysate (E). Phosphatase activity in the absence of ellagitannins, I2 or OA was taken as 100%. Data are means ± SD (n = 3–5).

PP1c = assay: Protein phosphatase assay with 32P-MLC20, native PP1c; format: biochemical; conditions: native PP1c from rabbit skeletal muscle; 1 µM 32P-MLC20; 10 min preincubation; mean ± SD
Experimental: as §1, §2, §3

PP2Ac = assay: Protein phosphatase assay with 32P-MLC20, native PP2Ac; format: biochemical; conditions: native PP2Ac from rabbit skeletal muscle; 1 µM 32P-MLC20; 10 min preincubation; mean ± SD
Experimental: as §1, §2, §3

rPP1cα = molecular target: T1, rPP1cα (Homo sapiens, UniProt P62136); assay: Microscale thermophoresis (MST); format: binding; conditions: unlabelled rPP1cα, intrinsic fluorescence (NT.LabelFree)
T1 construct: FLAG; made in house
Experimental: Figure 3. […] The changes in either, the intrinsic fluorescence of unlabelled rPP1cα upon binding to tellimagrandin I and PGG, or changes in fluorescent signal from rPP1cα extrinsically labelled with NT647 dye upon binding with EGCG, were determined at a range of concentration of polyphenols, and the fractions bound are presented. Data points are means ± SD (n = 3).

[1] = test system: mouse cortical synaptosomes; assay: KCl induced exocytosis of cortical synaptosomes (FM 2-10 dye); format: cell-based; conditions: 30 mM KCl; FM 2-10 fluorescence; 45 min treatment
Experimental: (§4) Preparation of synaptosomes from murine brain cortex was carried out as described previously. Functional synaptosomes were kept in Krebs buffer (118 mM NaCl, 5 mM KCl, 25 mM NaHCO3, 1 mM MgCl2, 10 mM D-glucose, pH 7.4). After preparation, synaptosomes were treated with either tellimagrandin I or mahtabin A in 1, 10 or 100 µM final concentrations, or with 10 µM tautomycetin (TMC) for 45 min at 30 °C. After the treatments synaptosomes were applied for exocytosis assay or were lysed and the protein lysates were subjected to Western blot. For exocytosis assay an already established protocol[25] was used. FM 2–10 water-soluble styryl dye was incorporated first into the outer leaflet of synaptosome membrane, then into the synaptosomes. Exocytosis was induced by addition of 30 mM KCl to the synaptosomes. The fluorescent intensity of FM 2–10 styryl dye negatively correlated with the extent of synatposomal exocytosis and was measured by Fluoroskan FL (excitation: 488 nm, emission: 540 nm). Western blot of synaptosome proteins was carried out as described previously[24]^,[25].
Figure 5. […] E: Representative Western blot with anti- SNAP-25^pThr138 specific antibody. F: Relative changes in the amount of SNAP-25^pThr138 determined by densitometry of the Western blots normalised on the bands obtained for the loading controls. Data are means ± SD (n = 3). […]

HeLa cells [2] = assay: HeLa cell viability, Alamar-blue assay; format: cell-based, human; conditions: 24 h incubation, serum free; 0-50 µM tested
Experimental: HeLa cells and tsa201 cells were cultured as recommended by the supplier. Prior to treatments HeLa cells were serum starved in MEM medium supplemented with 2 mM L-glutamine for 17 h. For phosphatase activity assay cells were treated with increasing concentration of polyphenol compounds (1–50 µM) for 1 h. To assess cell viability by Alamar-blue assay serum starved cells were treated with ellagitannins (1–50 µM) for 24 h in serum free MEM medium. The media was exchanged for resazurin (20 µM) containing serum free media and the cells were incubated for 2 h to enhance resorufin formation by the viable cells. The emission of resorufin was measured by a fluorimeter at 620 nm.
Figure 4. Distinct influence of ellagitannins on the survival and phosphatase activity of HeLa cells. The effect of tellimagrandin I and mahtabin A was assayed on the survival (A) and the phosphatase activity (B) of HeLa cells in 0–50 µM concentration range as detailed in Materials and methods. The cell survival and the phosphatase activity in the absence of ellagitannins were taken as 100%. Data represent means ± SD (n = 3). ANOVA *p < .05, **p < .01, ***p < .001, n.s.: not significant.

HeLa cells [3] = assay: Phosphatase activity of polyphenol-treated HeLa cells; format: cell-based, human; conditions: 1 h incubation; 0-50 µM tested
Experimental: as §1
HeLa cells and tsa201 cells were cultured as recommended by the supplier. […] The emission of resorufin was measured by a fluorimeter at 620 nm. […]

SNAP-25^Thr138 = assay: Phosphorylation of SNAP-25 Thr138 in cortical synaptosomes (Western blot); format: cell-based, mouse; conditions: synaptosomes treated 45 min at 30 °C; ellagitannins 1-100 µM, TMC 10 µM
Experimental: as §4
Figure 5. […] E: Representative Western blot with anti- SNAP-25^pThr138 specific antibody. F: Relative changes in the amount of SNAP-25^pThr138 determined by densitometry of the Western blots normalised on the bands obtained for the loading controls. Data are means ± SD (n = 3). ANOVA *p < .05, **p < .01, ***p < .001, n.s.: not significant.

T1 sequence (P62136 whole entry): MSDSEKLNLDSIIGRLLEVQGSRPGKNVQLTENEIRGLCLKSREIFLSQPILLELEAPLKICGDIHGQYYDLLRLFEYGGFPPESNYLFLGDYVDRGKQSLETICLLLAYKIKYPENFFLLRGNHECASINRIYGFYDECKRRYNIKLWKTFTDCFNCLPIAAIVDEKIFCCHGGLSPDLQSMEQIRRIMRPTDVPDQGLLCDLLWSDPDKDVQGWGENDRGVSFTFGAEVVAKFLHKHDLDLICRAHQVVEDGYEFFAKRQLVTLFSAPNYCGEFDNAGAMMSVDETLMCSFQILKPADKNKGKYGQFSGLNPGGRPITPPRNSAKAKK

O=C(O[C@@H]1O[C@@H]2COC(=O)c3cc(O)c(O)c(O)c3-c3c(cc(O)c(O)c3O)C(=O)O[C@H]2[C@H](O)[C@H]1OC(=O)c1cc(O)c(O)c(O)c1)c1cc(O)c(O)c(O)c1 [GHG, 1,2-di-O-galloyl-4,6-(S)-hexahydroxydiphenoyl-β-D-glucose]
IC50 (HeLa lysate): 13 ± 3.3 µM | IC50 (PP1c): 1410 ± 300 nM | IC50 (PP2Ac): > 100 µM

O=C(OC[C@H]1O[C@@H](OC(=O)c2cc(O)c(O)c(O)c2)[C@H](OC(=O)c2cc(O)c(O)c(O)c2)[C@@H](OC(=O)c2cc(O)c(O)c(O)c2)[C@@H]1OC(=O)c1cc(O)c(O)c(O)c1)c1cc(O)c(O)c(O)c1 [PGG, penta-O-galloyl-β-D-glucose]
Kd (rPP1cα): 3.08 ± 0.35 µM

O=C(OC[C@H]1O[C@@H](OC(=O)c2cc(O)c(O)c(O)c2)[C@@H]2OC(=O)c3cc(O)c(O)c(O)c3-c3c(cc(O)c(O)c3O)C(=O)O[C@H]2[C@@H]1OC(=O)c1cc(O)c(O)c(O)c1)c1cc(O)c(O)c(O)c1 [mahtabin A]
IC50 (HeLa lysate): 6.19 ± 0.37 µM | Effect on KCl induced synaptosomal exocytosis [1]: suppressed exocytosis | Effect on viability (survival) of HeLa cells (HeLa cells [2]): without effect | Effect on phosphatase activity of HeLa cells (HeLa cells [3]): without effect | IC50 (PP1c): 410 ± 180 nM | IC50 (PP2Ac): 33.8 ± 8.44 µM | Effect on phosphorylation level of SNAP-25^Thr138 (SNAP-25^Thr138): increased the amount of phosphorylated SNAP-25^Thr138

O=C1OC[C@H]2OC(O)[C@@H]3OC(=O)c4cc(O)c(O)c(O)c4-c4c(cc(O)c(O)c4O)C(=O)O[C@H]3[C@@H]2OC(=O)c2cc(O)c(O)c(O)c2-c2c1cc(O)c(O)c2O (some centres unmarked) [pedunculagin]
IC50 (HeLa lysate): 33.9 ± 4.54 µM | IC50 (PP1c): ~2470 nM | IC50 (PP2Ac): > 100 µM
